The values below come from US20090136561A1, “Non-peptidyl agents with pHSP20-like activity, and uses thereof” (Prolexys Pharmaceuticals, Inc., priority 2004, published 2009).

Test [1] concerns the target T1, interaction between 14-3-3γ and pHSP20 (Homo sapiens, UniProt P61981).
T1 sequence (P61981 1-247): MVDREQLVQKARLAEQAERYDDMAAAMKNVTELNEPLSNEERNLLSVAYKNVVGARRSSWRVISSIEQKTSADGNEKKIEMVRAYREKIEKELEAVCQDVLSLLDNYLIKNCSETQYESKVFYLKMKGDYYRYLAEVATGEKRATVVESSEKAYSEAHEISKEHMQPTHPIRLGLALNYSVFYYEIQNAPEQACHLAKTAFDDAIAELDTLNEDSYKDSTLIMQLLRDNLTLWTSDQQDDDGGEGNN
Put plainly: Fluorescence polarization assay of 14-3-3γ / fluorescein-labeled pHSP20 peptide (WLRRApSAP) interaction. To be noted: for inhibition of interaction between 14-3-3γ and pHSP20: dose response, FIG. 9; for IC50: multiple concentrations, FIG. 10. It counts as binding. The procedure:
The ability of compounds (a)-(k) to inhibit the interaction between 14-3-3γ and pHSP20 was determined by a fluorescence polarization (FP) assay. […] The initial screen for inhibitors examined approximately 50,000 compounds in the DiverSet library (ChemBridge, San Diego). Initial compound screening was carried out by first mixing peptide and individual compounds followed by addition of protein to a final volume of 15 ul. The final concentrations of each component were: 57.4 nM peptide, 10 uM compound, 5% DMSO, 1.5 uM 14-3-3 gamma, 0.01 M HEPES pH 7.4, 0.15 M NaCl, 3 mM EDTA, 0.005% Tween 20, 10 mM MnCl2, 9.33 mM Tris (7.5), and 0.0093% NaN3.
The ability of compounds (l) and (m) to inhibit the interaction between 14-3-3γ and pHSP20 was determined by a fluorescence polarization (FP) assay as described in Example 4, except that the compound was measured at multiple concentrations.

Test [2] has as its system Primary human airway smooth muscle cells. Description: Spontaneous bead motion (MSD) of RGD-coated microbeads on airway smooth muscle cells. The class given is cell-based. To be noted: for effect on bead motion: formulated with 4% cyclodextrin, 10-15 minutes incubation. The procedure:
Primary human airway smooth muscle cells were isolated from healthy individuals and cultured to passage 3-6. The cells were grown to confluence, and then serum deprived for 24 hours. The serum-deprived cells were plated on plastic wells coated with collagen.
After the cells were plated, RGD-coated microbeads were added. […] Consequently, the movement of the cells can be determined by monitoring the motion of the microbeads. In this assay, the rate of spontaneous bead motions (i.e., cell motion) depends upon the rate of reorganization of the actin cytoskeleton.
The position of each bead was recorded using video microscopy. The two-dimensional trajectory of bead motion are expressed as a mean square displacement (MSD) as a function of time: […]
where ri(t) is the distance of the ith bead at time t relative to its position at time 0.
The spontaneous bead motion in each sample of cells was first measured for 5 minutes. […] Spontaneous bead motions were then measured for another 5 minutes.

For test [3] the test system is unchanged. Put plainly: Magnetic twisting cytometry, cell stiffness (storage modulus G'). It counts as cell-based. To be noted: for change of cell stiffness (storage modulus): controls, measured over 10 minutes. As for the experimental part:
Primary human airway smooth muscle cells were isolated from healthy individuals and cultured to passage 3-6. The cells were grown to confluence, and then serum deprived for 24 hours. The serum-deprived cells were plated on plastic wells coated with collagen. After the cells were plated, RGD-coated microbeads were added. As described by Wang et al. Science 260:1124-1127, 1993, the microbeads become tightly anchored to the cell cytoskeleton. Consequently, the movement of the cells can be determined by monitoring the motion of the microbeads.
Once the cells were attached to the microbeads, the beads were magnetized using a magnetizing coil and twisted using a twisting coil, which generates an oscillating magnetic field at 0.7 Hz. The bead displacement is measured using video microscopy at 83 ms intervals. The amplitude of bead displacement is dependent on several factors, but generally the displacement is directly proportional to cell stiffness. The cell stiffness is expressed as a change of storage modulus (G′) over time (Maksym et al., J. Appl. Physiol. 89: 1619-1632, 2000).
The cell stiffness for control experiments and experiments using peptides was measured over 10 minutes. The peptides were added 1 minute after the start of the experiment. The cell stiffness for non-peptidyl compounds of the invention was measured for 1 minute, stopped, compound added and stiffness was measured for another 10 minutes.

Test [4] concerns Bovine coronary artery rings. Description: Contraction/dilation of serotonin-treated bovine coronary artery rings. It counts as cell-based. The conditions noted are these: for effect on the rings: cyclodextrin formulation, serotonin treated, 30 minutes after treatment. As for the experimental part: Bovine coronary artery rings were treated with compositions containing only cyclodextrin or formulations of cyclodextrin in combination with a pHSP20 peptide, compound (m) or compound (n). The contraction of the rings was measured over time after treatment with serotonin and one of the formulations above. Each of the formulations was tested at several concentrations, with the exception of the pHSP20 peptide.

A further test deals with 14-3-3 proteins. Put plainly: Pull-down with bead-immobilized peptides from HEK293 whole cell lysate, SDS-PAGE and MS analysis. The class given is binding, human. To be noted: peptide immobilized on Affigel 10 beads. As for the experimental part: To determine if the pHSP20 peptide binds to 14-3-3, pull-down experiments were conducted with pHSP20 and its analogues, aHSP20 and scrHSP20, linked to NHS activated Affigel 10 beads. As an additional control, activated beads were also reacted with ethanolamine. Each of the bead-bound peptide samples and the ethanolamine control were then separately incubated for 1.5 h at 4° C. with a whole cell lysate derived from HEK293 cells. After thoroughly washing the beads, each of the four sets of beads was eluted with a 100 μM solution of the free peptide corresponding to the one immobilized on the beads; the ethanolamine control beads were eluted with pHSP20. Approximately 15% of the eluate volume was run on an SDS-PAGE gel, while the remainder of the eluate was precipitated with ethanol and then analyzed by a 2D-LC shotgun MS method (Washburn et al., 2001, Nat. Biotechnol. 19:242).
The N-terminal amino group of the peptides was utilized for the immobilization to N-hydroxysuccinimide activated Affi-Gel 10 beads (Biorad, Hercules, Calif.). For the immobilization, 60 μg of each peptide, dissolved in dimethylformamide (DMF), was incubated for 4 h with 100 μl beads and 0.14 μmol triethylamine (Sigma, St. Louis, Mo.). The final volume during the immobilization was 400 μl. […] The release of the ivDde group was monitored by measuring the absorption at 290 nm. […]

The next test concerns the target T2, 14-3-3 gamma isoform (Homo sapiens, UniProt P61981).
T2 construct: GST-His (E23) or Biotin-His (E25)
T2 sequence (P61981 1-247): T1 sequence (P61981 1-247)
Description: Biacore competition: 14-3-3 gamma flowed over immobilized pHSP20 peptide in presence of competing peptides. The class given is binding. To be noted: free peptide as competitor. As for the experimental part: To determine the relative binding affinity between various truncated versions of the pHSP20 (phosphorylated HSP20) peptide and the 14-3-3 gamma isoform, Applicants employed Biacore binding assays and the experiments were set up as follows. The pHSP20 peptide used in the original experiments (e.g., WLRRAp[…]) was immobilized to a Biacore chip and competition experiments were performed by flowing a 14-3-3 gamma isoform protein over the chip in the presence of different pHSP20 truncation variants. The pHSP20 truncation variants included: a) pHSP20 (positive control); b) HSP20 (unphosphorylated pHSP20, negative control); c) RRApSAP (minimal 14-3-3 consensus binding sequence); d) WLRRApSAP; e) RRApSAPLP; f) RRAp[…]; g) WLRRApSAPLP.
Competition experiments were done whereby the only variable between experiments is the identity of the competing peptide.
A general note: Surface plasmon resonance follows binding to a sensor surface in real time, without labels.

The subject of test [5] is 14-3-3 isoforms (YWHAG, YWHAH, YWHAE, YWAHB, YWHAZ). Put plainly: Biacore binding of tagged 14-3-3 isoforms to immobilized pHSP20 peptide. The conditions noted are these: E23- and E25-tagged 14-3-3 proteins. As for the experimental part: To further determine binding specificity of the pHSP20 peptide for each 14-3-3 isoform, similar binding experiments were carried out with each 14-3-3 isoform. Various 14-3-3 isoforms were either tagged with GST-His (referred to as “E23”) or tagged with Biotin-His (referred to as “E25”). The E23-14-3-3 proteins (tagged with GST-His) bound much better than the E25-14-3-3 proteins (tagged with Biotin-His). Similar effects were detected by using a version of YWHAG (also referred to as 14-3-3γ) in which the GST tag was proteolytically removed. […] It is believed that the GST either has a chaperone or stabilizing effect on YWHAG or it promotes the formation of dimers of YWHAG which could have different binding properties to pHSP20. Further experiments are planned to elucidate this discrepancy.

Values joined by “and” are separate entries in the source; they are usually repeats but may differ in a detail not shown here. Equal values may be shown once. “Also recorded” adds a separate entry of the source. Non-standard residues stand in square brackets, D forms with d. Residues, ends and D or L forms follow the SMILES beside them. pS = N[C@@H](COP(=O)(O)O)C(=O)O

For the compound `CC(C)(C)c1nc(Nc2ccccc2)s[n+]1C=C(Cl)Cl` [(a)], the “inhibition of interaction between 14-3-3γ and pHSP20” value in test [1] is reported as “able to largely inhibit interaction”. Still for that read-out and setting: under `COc1ccccc1Nc1nc(-c2ccccc2)[n+](-c2ccccc2)s1` [(j)] stands “able to largely inhibit interaction”. Regarding `O=C(N/N=C/c1cc(O)ccc1Br)c1ccncc1` [(o)], in test [2], the “effect on bead motion” value was “not conclusive”. For `c1ccc(CNc2nc(-c3ccccc3)[n+](-c3ccccc3)s2)cc1` [compound (f)], the “inhibition of interaction between 14-3-3γ and pHSP20” value in test [1] is recorded as “able to largely inhibit interaction”. In test [2], the “effect on bead motion” value was “clearly increases bead motion”. Besides, the “change of cell stiffness compared to the cyclodextrin control” value in test [3] (solubilized with cyclodextrin, 10 minutes after addition) is “particular striking”. Usually IC50 stands for the concentration at which inhibition is half-maximal. The low end stands for higher potency, the high end for lower potency. In test [1], `O=[N+]([O-])C1=Cc2cc(Br)cc(Br)c2OC1c1c(Cl)cccc1Cl` (stereo not drawn) [compound (l)] registered an IC50 of approximately 32 µM. Regarding `O=C(N/N=C/c1ccc(O)c(O)c1O)c1ccncc1` [compound (m)], the IC50 in test [1] was approximately 13.5 µM. Further, in test [4], the “duration of vasodilatory effect compared with pHSP20 peptide” value was “longer than that of the pHSP20 peptide”, the “vasodilatory effect at 40 minutes after treatment” value is “no significant decrease in the vasodilatory effect” and the “effect on the rings” value is recorded as “vasodilatory effect”. In addition, the “effect on bead motion” value in test [2] is on record as “not conclusive”. Consider `COc1ccc(/C=N/NC(=O)c2cncc(Br)c2)c(OC)c1OC` [compound (n)], for which, in test [4], the “duration of vasodilatory effect compared with pHSP20 peptide” value was “longer than that of the pHSP20 peptide”, the “vasodilatory effect at 40 minutes after treatment” value was “no significant decrease in the vasodilatory effect” and the “effect on the rings” value is listed as “vasodilatory effect”. Moreover, the “effect on bead motion” value in test [2] is “not conclusive”. Turning to `NCCc1c[nH]cn1` [histamine], the “change of cell stiffness (storage modulus)” value in test [3] is on record as “increased the cell stiffness”. On the same count and under the same terms, under `CC(C)NCC(O)c1ccc(O)c(O)c1` (stereo not drawn) [isoproterenol] stands “decreased the stiffness”.

As to `CC(C)C[C@H](NC(=O)CNC(=O)[C@@H]1CCCN1C(=O)[C@H](CC(C)C)NC(=O)[C@@H]1CCCN1C(=O)[C@H](C)NC(=O)[C@H](COP(=O)(O)O)NC(=O)[C@H](C)NC(=O)[C@H](CCCNC(=N)N)NC(=O)[C@H](CCCNC(=N)N)NC(=O)[C@H](CC(C)C)NC(=O)[C@@H](N)Cc1c[nH]c2ccccc12)C(=O)N[C@@H](CO)C(=O)N[C@@H](CCCCN)C(=O)O` [pHSP20 peptide] (H-WLRRA[pS]APLPGLSK-OH; N-terminus and C-terminus assumed), the “binding of 14-3-3 proteins in pull-down” value in the test on 14-3-3 proteins is reported as “binds to 14-3-3 proteins”. In addition, the “competition with immobilized pHSP20 peptide for binding to 14-3-3γ” value (from here on “competition”) at 14-3-3 gamma isoform is listed as “binding of 14-3-3 to the pHSP20 ligand is decreased”. Further, in test [5], the “isoform specificity for the pHSP20 peptide” value was “YWHAG>YWHAH>YWHAE=YWAHB=YWHAZ and 14-3-3γ (YWHAG) and 14-3-3η (YWHAH) bind stronger than the other 14-3-3 isoforms”. On to `O=[As]O` [sodium arsenite, reference compound], for which the “effect on bead movement” value in test [2] (200 μM, negative control) is reported as “decrease in bead movement”. RRApSAP: on 14-3-3 gamma isoform, the “competition” value was “competed better than the original pHSP20 sequence; also recorded: higher binding affinity to 14-3-3 gamma than the original pHSP20 peptide; also recorded: strong competition”.

Consider WLRRApSAP, for which the “competition” value at 14-3-3 gamma isoform is reported as “higher binding affinity to 14-3-3 gamma than the original pHSP20 peptide; also recorded: strong competition”.
